Laboratory results as given in patent US9290516B2, “Benzobis(thiadiazole) derivative and organic electronics device comprising same” (Ube Industries, Ltd., priority 2012, dated 2016).
Read-outs that look alike come from different tables or passages of the source.

Tests used:
Type in all cases: physicochemical
[1] = Solubility Experiment 2 (mesitylene); conditions: 5 mg in 1.6 g mesitylene, heated to 100° C.
Description: Into a 20-ml glass vessel equipped with a stirring apparatus were placed 5 mg of BBT-(1), and 1.6 g of mesitylene.
(§1) On the other hand, using BBT-(11): (FPTBBT) synthesized in Reference Example 1, instead of BBT-(1), the preparation of a solution of BBT-(11) in 1,2-dichlorobenzene was attempted in accordance with [Solubility Experiment 1]. […] The suspension was filtered through a 0.2-μm filter, and then dropped onto a silicon wafer as described above. And then, without any treatment, the solvent component was volatilized, but the formation of a thin film of BBT-(11) was not confirmed. Meanwhile, using BBT-(11), instead of BBT-(1), the preparation of a solution of BBT-(11) in mesitylene was attempted in accordance with [Solubility Experiment 2]. […] The suspension was filtered through a 0.2-μm filter, and then dropped onto a silicon wafer as described above. And then, without any treatment, the solvent component was volatilized, but the formation of a thin film of BBT-(11) was not confirmed.

[2] = Solubility Experiment 3 (chlorobenzene, visual observation); conditions: organic solvent or mixture, thermodynamic from solid, 1 mg in 1 mL chlorobenzene
Description: 1 mg of each compound shown in Table 1 [BBT-(1)-BBT-(14)] was added to 1 mL of a solvent (chlorobenzene) and the mixture was heated to 100° C. or 140° C., and the solubility was evaluated by visual observation.

[3] = Solubility Experiment 1 (1,2-dichlorobenzene); conditions: 5 mg in 1.6 g 1,2-dichlorobenzene, heated to 150° C.
Description: Into a 20-ml glass vessel equipped with a stirring apparatus were placed 5 mg of BBT-(1), and 1.6 g of 1,2-dichlorobenzene.
as §1

[4] = heated to 100° C., read-out: Solubility chlorobenzene (° C.) 100
[5] = heated to 140° C., read-out: Solubility chlorobenzene (° C.) 140

Structure (SMILES) | Solubility in mesitylene [1] | solubility [2, 4] [µg/mL] | solubility [2, 5] [µg/mL] | Solubility in 1,2-dichlorobenzene [3]
CC(F)(F)c1ccc(-c2ccc(-c3c4c(c(-c5ccc(-c6ccc(C(C)(F)F)cc6)s5)c5nsnc35)N=S=N4)s2)cc1 [BBT-(4)] |  | < 1000 | > 1000 | 
CCCCCCCCCCC(F)(F)c1ccc(-c2ccc(-c3c4c(c(-c5ccc(-c6ccc(C(F)(F)CCCCCCCCCC)cc6)s5)c5nsnc35)N=S=N4)s2)cc1 [BBT-(5)] |  | > 1000 | > 1000 | 
CCCCCCCCCC(F)(F)Oc1ccc(-c2ccc(-c3c4c(c(-c5ccc(-c6ccc(OC(F)(F)CCCCCCCCC)cc6)s5)c5nsnc35)N=S=N4)s2)cc1 [BBT-(7)] |  | > 1000 | > 1000 | 
CC(C)CC(F)c1ccc(-c2ccc(-c3c4c(c(-c5ccc(-c6ccc(C(F)CC(C)C)cc6)s5)c5nsnc35)N=S=N4)s2)cc1 (stereo not drawn) [BBT-(9)] |  | < 1000 | > 1000 | 
CCCCCCCCCCOC(F)(F)c1ccc(-c2ccc(-c3c4c(c(-c5ccc(-c6ccc(C(F)(F)OCCCCCCCCCC)cc6)s5)c5nsnc35)N=S=N4)s2)cc1 [BBT-(10)] |  | > 1000 | > 1000 | 
Cc1ccc(-c2ccc(-c3c4c(c(-c5ccc(-c6ccc(C)cc6)s5)c5nsnc35)N=S=N4)s2)cc1 [BBT-(12), reference compound] |  | > 1000 | > 1000 | 
COc1ccc(-c2ccc(-c3c4c(c(-c5ccc(-c6ccc(OC)cc6)s5)c5nsnc35)N=S=N4)s2)cc1 [BBT-(13), reference compound] |  | < 1000 | > 1000 | 
CCCCCCCCCc1ccc(-c2ccc(-c3c4c(c(-c5ccc(-c6ccc(CCCCCCCCC)cc6)s5)c5nsnc35)N=S=N4)s2)cc1 [BBT-(14), reference compound] |  | > 1000 | > 1000 | 

Now from value to compound:

Solubility in mesitylene [1] | solubility [2, 4] [µg/mL] | solubility [2, 5] [µg/mL] | Solubility in 1,2-dichlorobenzene [3] | Structure (SMILES)
completely dissolved | > 1000 | > 1000 | completely dissolved | FC(F)(F)Oc1ccc(-c2ccc(-c3c4c(c(-c5ccc(-c6ccc(OC(F)(F)F)cc6)s5)c5nsnc35)N=S=N4)s2)cc1 [BBT-(1)]
 | > 1000 | > 1000 |  | FC(F)(F)Oc1cccc(-c2ccc(-c3c4c(c(-c5ccc(-c6cccc(OC(F)(F)F)c6)s5)c5nsnc35)N=S=N4)s2)c1 [BBT-(2)]
 | > 1000 | > 1000 |  | FC(F)(F)Oc1ccccc1-c1ccc(-c2c3c(c(-c4ccc(-c5ccccc5OC(F)(F)F)s4)c4nsnc24)N=S=N3)s1 [BBT-(3)]
 | < 1000 | > 1000 |  | CC(F)(F)Oc1ccc(-c2ccc(-c3c4c(c(-c5ccc(-c6ccc(OC(C)(F)F)cc6)s5)c5nsnc35)N=S=N4)s2)cc1 [BBT-(6)]
not completely dissolved | < 1000 | < 1000 | not completely dissolved | FC(F)(F)c1ccc(-c2ccc(-c3c4c(c(-c5ccc(-c6ccc(C(F)(F)F)cc6)s5)c5nsnc35)N=S=N4)s2)cc1 [BBT-(11), reference compound]
